This is an account of results in article PMC10468883, “Synthesis and Anticancer Activities of Pyrazole–Thiadiazole-Based EGFR Inhibitors” (ACS Omega, 2023).

One test concerns A549 cell line. In words: MTT cytotoxicity assay (24 h), A549 cell line. It is filed as cell-based. The settings on record: for SI for A549: selectivity index, NIH3T3 vs A549. The procedure: Thanks to this color change, the cell viability rate can be determined spectrometrically.[33]Table 1 presents the results of the MTT experiment performed with the 24 h procedure using two cancer lines (A549 and MCF-7) and a healthy cell line (NIH3T3). Doxorubicin is used as a reference drug. MTT assays were performed as previously described.[34]−[36] Cytotoxicity assays of compounds 6a–6j were performed with the 24 h MTT procedure. […] These compounds include allyl (6d), phenyl (6g), and 4-chlorophenyl (6j) moieties. […] The selectivity indexes of compounds 6d, 6g, and 6j were calculated as 2.3, 7.23, and 5.68, respectively. […] It can be predicted that the side effect and toxic effect profile of compound 6g will be less than that of compounds 6d and 6j.
A general note: Tetrazolium dyes change colour on reduction, which living cells bring about.

The subject of the next test is MCF-7 cell line. In words: MTT cytotoxicity assay (24 h), MCF-7 cell line. It is filed as cell-based. Particulars: for IC50: MTT, 24 h, MCF-7 cell line, means of quartet assays; for SI for MCF-7: selectivity index, NIH3T3 vs MCF-7. As to the method: (§1) The principle of the MTT test used to determine the metabolic activity of living cells is based on the reduction of […] 3-(4,5-dimethylthiazol-2-yl)-2,5 diphenyltetrazolium salt to the purple-colored formazan product. Thanks to this color change, the cell viability rate can be determined spectrometrically.[33]Table 1 presents the results of the MTT experiment performed with the 24 h procedure using two cancer lines (A549 and MCF-7) and a healthy cell line (NIH3T3). Doxorubicin is used as a reference drug. MTT assays were performed as previously described.[34]−[36]
(§2) Cytotoxicity assays of compounds 6a–6j were performed with the 24 h MTT procedure. […]. […] […]. […] The selectivity indexes of compounds 6d, 6g, and 6j were calculated as 2.3, 7.23, and 5.68, respectively. […] It can be predicted that the side effect and toxic effect profile of compound 6g will be less than that of compounds 6d and 6j.

For a further test, the system named is NIH3T3 healthy cell line. In words: MTT cytotoxicity assay (24 h), healthy cell line NIH3T3. It is filed as cell-based. The settings on record: means of quartet assays. The procedure: as §1, §2
Another test concerns A549 cells. Nature of the test: Mitochondrial membrane potential (MMP) by flow cytometry, JC-1 dye. It is filed as cell-based. Particulars: substance at IC50 concentration, 24 h incubation. (In general: Flow cytometry measures light scatter and fluorescence of single cells or particles in a stream.)
The next test concerns the target T1, EGFR enzyme (Homo sapiens, UniProt P00533).
T1 construct: purchased
In words: EGFR Kinase Assay Kit inhibition assay. It is filed as biochemical. Particulars: in vitro kit method. The procedure: The EGFR Kinase Assay Kit (available from ref ([38])) was used for the EGFR inhibition. The kit protocol was followed, and the experiment was carried out in vitro.
EGFR kinase, which belongs to the ErbB family of tyrosine kinases, is known to regulate the signaling pathways of cell survival, migration, proliferation, differentiation, and adhesion.[52] Inhibition of this member of the tyrosine kinase family, which is a new approach in cancer chemotherapy, is important.

The mark [1] stands for this setting: Homo sapiens, A549, 24 h, MTT, 24 h, A549 cell line, means of quartet assays.
The mark [2] stands for this setting: MTT, 24 h, A549 cell line, means of quartet assays.

T1 sequence (P00533 25-1210): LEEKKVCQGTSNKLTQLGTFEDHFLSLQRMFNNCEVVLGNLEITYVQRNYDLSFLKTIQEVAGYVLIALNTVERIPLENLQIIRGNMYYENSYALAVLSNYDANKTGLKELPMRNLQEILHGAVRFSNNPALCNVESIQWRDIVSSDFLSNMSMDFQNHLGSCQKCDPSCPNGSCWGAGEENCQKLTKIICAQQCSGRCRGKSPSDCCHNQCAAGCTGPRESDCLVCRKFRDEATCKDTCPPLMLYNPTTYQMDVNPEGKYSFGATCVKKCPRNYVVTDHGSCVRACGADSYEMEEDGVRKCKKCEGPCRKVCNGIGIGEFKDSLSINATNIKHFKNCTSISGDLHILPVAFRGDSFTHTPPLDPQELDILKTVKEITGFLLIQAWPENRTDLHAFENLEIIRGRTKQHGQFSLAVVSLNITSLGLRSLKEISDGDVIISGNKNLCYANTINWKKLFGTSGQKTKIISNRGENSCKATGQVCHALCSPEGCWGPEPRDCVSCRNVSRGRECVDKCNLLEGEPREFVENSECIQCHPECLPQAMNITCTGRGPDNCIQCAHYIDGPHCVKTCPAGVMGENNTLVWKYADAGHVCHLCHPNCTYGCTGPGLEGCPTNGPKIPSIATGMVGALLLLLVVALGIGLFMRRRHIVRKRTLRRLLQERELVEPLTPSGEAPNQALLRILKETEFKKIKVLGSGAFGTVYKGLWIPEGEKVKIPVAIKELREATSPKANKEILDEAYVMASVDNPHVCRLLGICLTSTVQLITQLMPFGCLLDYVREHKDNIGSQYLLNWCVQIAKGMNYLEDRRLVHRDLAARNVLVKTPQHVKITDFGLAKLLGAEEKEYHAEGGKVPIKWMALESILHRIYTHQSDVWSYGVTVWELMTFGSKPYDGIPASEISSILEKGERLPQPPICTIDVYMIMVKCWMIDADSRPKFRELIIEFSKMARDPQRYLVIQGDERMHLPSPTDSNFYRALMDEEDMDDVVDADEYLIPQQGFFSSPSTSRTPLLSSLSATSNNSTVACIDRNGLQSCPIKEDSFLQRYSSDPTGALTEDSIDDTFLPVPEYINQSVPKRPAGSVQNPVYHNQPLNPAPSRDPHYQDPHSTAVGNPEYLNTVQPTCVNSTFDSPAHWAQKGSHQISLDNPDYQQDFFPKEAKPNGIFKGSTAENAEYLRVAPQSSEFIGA
Procedure for A549 cells: In the first step, A549 cells seeded in 25 mL flasks were incubated for 24 h in a 5% CO2 incubator. […] Cells were collected and centrifuged in line with the instructions in the kit at the conclusion of this period. The upper part was removed, JC-1 dye was added, and the mixture was incubated for 10–15 min at 37 °C. The CytoFLEX flow cytometer (Beckman Coulter Life Sciences, USA) and CytExpert for CytoFLEX Acquisition and Analysis Software Version 2.2.0.97 were used to read it after two washings with washing solution at the conclusion of the period.
Both the inhibitory compound and the reference drug were administered at IC50 concentrations. After a 24 h incubation period (5% CO2), mitochondrial membrane potential was determined by flow cytometry using JC-1 dye.

In the case of `C=CCNc1nnc(SCC(=O)N2N=C(c3ccccc3)CC2c2ccc([N+](=O)[O-])cc2)s1` (stereo not drawn) [Compound 6d, 2-((5-(Allylamino)-1,3,4-thiadiazol-2-yl)thio)-1-(5-(4-nitrophenyl)-3-phenyl-4,5-dihydro-1H-pyrazol-1-yl)ethan-1-one], the IC50 (in general, the concentration needed to halve the response being measured) in the test with A549 cell line (setting [1]) is 5.18 ± 0.164 µM; in the test with A549 cell line (setting [2]) it was 5.18 ± 0.16 µM; in the test on MCF-7 cell line (Homo sapiens, MCF7, 24 h), 35.7 ± 2.24 µM; with MCF-7 cell line, 35.7 ± 2.24 µM; in the test with NIH3T3 healthy cell line (Mus musculus, NIH3T3, 24 h) it was 11.9 ± 0.486 µM; with NIH3T3 healthy cell line it was 11.9 ± 0.49 µM. Also, the “SI for A549” value in the test on A549 cell line amounted to 2.3. For the same compound, the “SI for MCF-7” value in the test on MCF-7 cell line was found to be 0.33.
For the compound `COc1cccc2c1C(=O)c1c(O)c3c(c(O)c1C2=O)C[C@@](O)(C(=O)CO)C[C@@H]3O[C@H]1C[C@H](N)[C@H](O)[C@H](C)O1` [doxorubicin, reference compound], the IC50 with A549 cell line (setting [1]) is 2.67 ± 0.12 µM; in the test on MCF-7 cell line (Homo sapiens, MCF7, 24 h), 1.59 ± 0.1 µM; with NIH3T3 healthy cell line (Mus musculus, NIH3T3, 24 h), greater than 1000 µM. Also, in the test on A549 cell line, the “SI for A549” value is listed as greater than 374.95. The “SI for MCF-7” value in the test with MCF-7 cell line is greater than 629.33. For the same compound, the “mitochondrial membrane potential (P3)” value with A549 cells turned out to be 30.27%.
Take `COc1ccc(Nc2nnc(SCC(=O)N3N=C(c4ccccc4)CC3c3ccc([N+](=O)[O-])cc3)s2)cc1` (stereo not drawn) [Compound 6i, 2-((5-((4-Methoxyphenyl)amino)-1,3,4-thiadiazol-2-yl)thio)-1-(5-(4-nitrophenyl)-3-phenyl-4,5-dihydro-1H-pyrazol-1-yl)ethan-1-one]: the IC50 in the test with A549 cell line (setting [1]) was 16.6 ± 0.21 µM; in the test on MCF-7 cell line (Homo sapiens, MCF7, 24 h), greater than 100 µM; in the test on NIH3T3 healthy cell line (Mus musculus, NIH3T3, 24 h), greater than 100 µM. The “SI for A549” value in the test with A549 cell line is greater than 6.01.
Turning to `CC(C)Nc1nnc(SCC(=O)N2N=C(c3ccccc3)CC2c2ccc([N+](=O)[O-])cc2)s1` (stereo not drawn) [Compound 6c, 2-((5-(Isopropylamino)-1,3,4-thiadiazol-2-yl)thio)-1-(5-(4-nitrophenyl)-3-phenyl-4,5-dihydro-1H-pyrazol-1-yl)ethan-1-one], the IC50 in the test on A549 cell line (setting [1]) was 27.9 ± 1.28 µM; with MCF-7 cell line (Homo sapiens, MCF7, 24 h), greater than 100 µM; in the test with NIH3T3 healthy cell line (Mus musculus, NIH3T3, 24 h), 33.2 ± 2.37 µM. Further, the “SI for A549” value in the test on A549 cell line is recorded as 1.19. In addition, in the test on MCF-7 cell line, the “SI for MCF-7” value is listed as less than 0.33.
For the compound `Cc1ccc(Nc2nnc(SCC(=O)N3N=C(c4ccccc4)CC3c3ccc([N+](=O)[O-])cc3)s2)cc1` (stereo not drawn) [Compound 6h, 1-(5-(4-Nitrophenyl)-3-phenyl-4,5-dihydro-1H-pyrazol-1-yl)-2-((5-(p-tolylamino)-1,3,4-thiadiazol-2-yl)thio)ethan-1-one], the IC50 in the test with A549 cell line (setting [1]) is 29.1 ± 1.01 µM; with MCF-7 cell line (Homo sapiens, MCF7, 24 h), 92.6 ± 1.89 µM; with NIH3T3 healthy cell line (Mus musculus, NIH3T3, 24 h), greater than 100 µM. Further, the “SI for A549” value in the test with A549 cell line is given as greater than 3.44. In addition, the “SI for MCF-7” value in the test on MCF-7 cell line is reported as greater than 1.08.
Turning to `O=C(CSc1nnc(NC2CCCCC2)s1)N1N=C(c2ccccc2)CC1c1ccc([N+](=O)[O-])cc1` (stereo not drawn) [Compound 6f, 2-((5-(Cyclohexylamino)-1,3,4-thiadiazol-2-yl)thio)-1-(5-(4-nitrophenyl)-3-phenyl-4,5-dihydro-1H-pyrazol-1-yl)ethan-1-one], the IC50 with A549 cell line (setting [1]) is greater than 100 µM; with MCF-7 cell line (Homo sapiens, MCF7, 24 h), greater than 100 µM; in the test with NIH3T3 healthy cell line (Mus musculus, NIH3T3, 24 h), 60.5 ± 3.72 µM. In the test on A549 cell line (setting [2]), the “IC50 A549” value is “no activity”. Also, the “SI for A549” value in the test on A549 cell line is less than 0.61. Moreover, in the test with MCF-7 cell line, the “SI for MCF-7” value is less than 0.61.
On to `O=C(CSc1nnc(Nc2ccc(Cl)cc2)s1)N1N=C(c2ccccc2)CC1c1ccc([N+](=O)[O-])cc1` (stereo not drawn) [Compound 6j, 2-((5-((4-Chlorophenyl)amino)-1,3,4-thiadiazol-2-yl)thio)-1-(5-(4-nitrophenyl)-3-phenyl-4,5-dihydro-1H-pyrazol-1-yl)ethan-1-one], for which the IC50 with A549 cell line (setting [1]) amounted to 8.49 ± 0.667 µM; with A549 cell line (setting [2]), 8.49 ± 0.67 µM; with MCF-7 cell line (Homo sapiens, MCF7, 24 h), 67.2 ± 3.63 µM; in the test on MCF-7 cell line, 67.2 ± 3.63 µM; in the test with NIH3T3 healthy cell line (Mus musculus, NIH3T3, 24 h), 48.3 ± 1.72 µM. The “SI for A549” value with A549 cell line came to 5.68. Besides, the “SI for MCF-7” value with MCF-7 cell line is given as 0.72.
Regarding `CCCNc1nnc(SCC(=O)N2N=C(c3ccccc3)CC2c2ccc([N+](=O)[O-])cc2)s1` (stereo not drawn) [Compound 6b, 1-(5-(4-Nitrophenyl)-3-phenyl-4,5-dihydro-1H-pyrazol-1-yl)-2-((5-(propylamino)-1,3,4-thiadiazol-2-yl)thio)ethan-1-one], the IC50 in the test on A549 cell line (setting [1]) is 15.8 ± 0.75 µM; in the test with MCF-7 cell line (Homo sapiens, MCF7, 24 h) it was 63.4 ± 2.09 µM; in the test with NIH3T3 healthy cell line (Mus musculus, NIH3T3, 24 h) it was 47.2 ± 4.53 µM.
As to `O=C(CSc1nnc(Nc2ccccc2)s1)N1N=C(c2ccccc2)CC1c1ccc([N+](=O)[O-])cc1` (stereo not drawn) [Compound 6g, 1-(5-(4-Nitrophenyl)-3-phenyl-4,5-dihydro-1H-pyrazol-1-yl)-2-((5-(phenylamino)-1,3,4-thiadiazol-2-yl)thio)ethan-1-one], the “SI for A549” value in the test with A549 cell line was determined as 7.22. For the same compound, the IC50 with MCF-7 cell line (Homo sapiens, MCF7, 24 h) was found to be 15.93 ± 0.054 µM; in the test with MCF-7 cell line, 15.93 ± 0.05 µM; in the test on NIH3T3 healthy cell line (Mus musculus, NIH3T3, 24 h), 11.1 ± 0.205 µM; in the test on NIH3T3 healthy cell line, 11.1 ± 0.21 µM; against EGFR enzyme, 0.024 ± 0.002 µM. In the test on MCF-7 cell line, the “SI for MCF-7” value stood at 0.70. Also, in the test on A549 cells, the “mitochondrial membrane potential (P3)” value is reported as 80.93%.
Take `CCNc1nnc(SCC(=O)N2N=C(c3ccccc3)CC2c2ccc([N+](=O)[O-])cc2)s1` (stereo not drawn) [Compound 6a, 2-((5-(Ethylamino)-1,3,4-thiadiazol-2-yl)thio)-1-(5-(4-nitrophenyl)-3-phenyl-4,5-dihydro-1H-pyrazol-1-yl)ethan-1-one]: the IC50 was 13.9 ± 0.25 µM with A549 cell line (setting [1]); greater than 100 µM in the test on MCF-7 cell line (Homo sapiens, MCF7, 24 h); 86.7 ± 4.07 µM in the test with NIH3T3 healthy cell line (Mus musculus, NIH3T3, 24 h). In addition, the “SI for A549” value in the test with A549 cell line came out at 6.24. The “SI for MCF-7” value in the test on MCF-7 cell line is less than 0.87.
